# In patent US9249131B2, “Modulators of ATP-binding cassette transporters” (Vertex Pharmaceuticals Incorporated, priority 2003, dated 2016):
# Molecular target: T1, ΔF508-CFTR (Homo sapiens, UniProt P13569, DEL508-508)
# T1 construct: expressed in transfected cells; host or cells: NIH3T3 mouse fibroblasts stably expressing ΔF508-CFTR for the optical, whole-cell and single-channel assays; Fisher rat epithelial (FRT) cells for Ussing chamber follow-up
# Assay: Assays for ΔF508-CFTR correction and potentiator properties (membrane potential optical and electrophysiological methods)
# Format: cell-based
# Conditions: CFTR modulation; for % Activity: % Efficacy; for EC50: tested using the above methods
# Method in brief: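 NIH3T3 mouse fibroblasts stably expressing ΔF508-CFTR were used, with membrane potential read by DiSBAC2(3)/CC2-DMPE FRET on VIPR. Correctors: 16 h compound exposure at 37 °C, then activation with forskolin plus genistein in Cl⁻-free medium. Potentiators: cells held 24 h at 27 °C, compound added in Cl⁻-free medium, 2-10 μM forskolin 22 s later (final Cl⁻ 28 mM).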
# T1 sequence (P13569 with tags, fused parts or gaps DEL508-508): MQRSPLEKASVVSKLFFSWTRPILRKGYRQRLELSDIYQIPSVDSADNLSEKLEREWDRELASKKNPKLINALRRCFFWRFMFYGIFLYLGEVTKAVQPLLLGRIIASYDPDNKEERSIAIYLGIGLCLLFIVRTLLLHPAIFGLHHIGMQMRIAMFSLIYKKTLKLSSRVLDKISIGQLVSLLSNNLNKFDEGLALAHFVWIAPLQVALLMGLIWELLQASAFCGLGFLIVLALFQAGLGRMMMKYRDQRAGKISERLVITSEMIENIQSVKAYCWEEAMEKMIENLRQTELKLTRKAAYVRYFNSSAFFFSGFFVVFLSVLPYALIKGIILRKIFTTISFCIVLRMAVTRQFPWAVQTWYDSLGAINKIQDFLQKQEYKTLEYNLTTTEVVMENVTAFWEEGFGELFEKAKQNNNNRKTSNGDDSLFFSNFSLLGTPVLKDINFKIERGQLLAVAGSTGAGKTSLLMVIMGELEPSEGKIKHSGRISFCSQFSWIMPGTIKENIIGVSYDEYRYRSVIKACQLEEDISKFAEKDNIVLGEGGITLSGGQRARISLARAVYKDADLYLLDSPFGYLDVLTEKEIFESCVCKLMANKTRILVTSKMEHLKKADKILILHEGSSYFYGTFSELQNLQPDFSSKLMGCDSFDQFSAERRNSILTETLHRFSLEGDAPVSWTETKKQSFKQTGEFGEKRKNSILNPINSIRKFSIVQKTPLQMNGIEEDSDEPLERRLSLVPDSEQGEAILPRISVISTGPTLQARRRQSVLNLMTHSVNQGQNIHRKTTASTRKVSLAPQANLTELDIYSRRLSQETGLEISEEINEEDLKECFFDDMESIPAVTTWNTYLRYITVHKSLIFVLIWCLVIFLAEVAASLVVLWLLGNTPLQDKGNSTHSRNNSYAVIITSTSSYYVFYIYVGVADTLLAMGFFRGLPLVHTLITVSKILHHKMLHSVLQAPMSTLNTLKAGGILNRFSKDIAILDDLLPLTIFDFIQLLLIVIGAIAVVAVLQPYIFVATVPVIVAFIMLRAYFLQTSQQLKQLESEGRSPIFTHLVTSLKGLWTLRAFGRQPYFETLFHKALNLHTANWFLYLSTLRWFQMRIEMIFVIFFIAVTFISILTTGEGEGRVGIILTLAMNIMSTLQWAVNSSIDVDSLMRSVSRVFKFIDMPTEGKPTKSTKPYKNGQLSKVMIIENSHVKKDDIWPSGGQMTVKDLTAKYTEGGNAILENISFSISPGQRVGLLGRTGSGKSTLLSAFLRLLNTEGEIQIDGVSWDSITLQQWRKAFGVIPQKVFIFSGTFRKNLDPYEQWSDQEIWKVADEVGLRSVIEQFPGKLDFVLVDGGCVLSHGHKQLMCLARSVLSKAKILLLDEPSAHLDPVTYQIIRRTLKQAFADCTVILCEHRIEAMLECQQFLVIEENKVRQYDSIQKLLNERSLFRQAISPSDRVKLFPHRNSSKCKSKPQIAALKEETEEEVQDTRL
SMILES,% Activity,EC50 [µM]
CCOC(=O)C1CCCN(C(C(=O)Nc2ncc(Cc3ccccc3Cl)s2)c2ccccc2)C1 (stereo not drawn) [compound 245],++ (“++” means between 25% to 100%),< 10
CC1CCN(C(C(=O)Nc2ncc(Cc3ccccc3Cl)s2)c2ccccc2)CC1 (stereo not drawn) [compound 246],++ (“++” means between 25% to 100%),< 10
CCOC(=O)C1CCN(C(C(=O)Nc2ncc(Cc3ccccc3Cl)s2)c2ccccc2)CC1 (stereo not drawn) [compound 247],+++ (“+++” means >100%),< 10
O=C(Nc1ncc(Cc2ccccc2Cl)s1)C(c1ccccc1)N1CCC(O)CC1 (stereo not drawn) [compound 248],++ (“++” means between 25% to 100%),< 10
O=C(Nc1ncc(Cc2ccccc2Cl)s1)C(c1ccccc1)N1CCN(c2ncccn2)CC1 (stereo not drawn) [compound 249],++ (“++” means between 25% to 100%),< 10
O=C(Nc1ncc(Cc2ccccc2Cl)s1)C(NC1CCCC1)c1ccccc1 (stereo not drawn) [compound 250],++ (“++” means between 25% to 100%),< 10
CCC(Nc1ccccc1)C(=O)Nc1ncc(Cc2ccccc2Cl)s1 (stereo not drawn) [compound 251],++ (“++” means between 25% to 100%),< 10
CCC(Oc1ccccc1)C(=O)Nc1ncc(Cc2ccccc2Cl)s1 (stereo not drawn) [compound 252],++ (“++” means between 25% to 100%),10 to 25
CCOC(=O)C1CCCCN1C(C(=O)Nc1ncc(Cc2ccccc2Cl)s1)c1ccccc1 (stereo not drawn) [compound 253],++ (“++” means between 25% to 100%),25 to 60
CN(Cc1ccccc1)C(C(=O)Nc1ncc(Cc2ccccc2Cl)s1)c1ccccc1 (stereo not drawn) [compound 254],++ (“++” means between 25% to 100%),< 10
CCC(C(=O)Nc1ncc(Cc2ccccc2Cl)s1)c1cccnc1 (stereo not drawn) [compound 255],++ (“++” means between 25% to 100%),< 10
N#Cc1ccccc1Cc1cnc(NC(=O)C(c2ccccc2)C2CCCCC2)s1 (stereo not drawn) [compound 256],++ (“++” means between 25% to 100%),< 10
CC(C(=O)Nc1ncc(Cc2ccccc2C#N)s1)c1ccccc1 (stereo not drawn) [compound 257],++ (“++” means between 25% to 100%),25 to 60
CCC(C(=O)Nc1ncc(Cc2ccccc2C#N)s1)c1ccccc1 (stereo not drawn) [compound 258],++ (“++” means between 25% to 100%),10 to 25
CCC(C)C(C(=O)Nc1ncc(Cc2ccccc2C#N)s1)c1ccccc1 (stereo not drawn) [compound 259],++ (“++” means between 25% to 100%),< 10
N#Cc1ccccc1Cc1cnc(NC(=O)C(c2ccccc2)C2CCCC2)s1 (stereo not drawn) [compound 260],++ (“++” means between 25% to 100%),< 10
CC(C)C(C(=O)Nc1ncc(Cc2ccccc2C#N)s1)c1ccccc1 (stereo not drawn) [compound 261],++ (“++” means between 25% to 100%),< 10
CCC(C(=O)Nc1ncc(C(=O)c2ccccc2Cl)s1)c1ccccc1 (stereo not drawn) [compound 262],++ (“++” means between 25% to 100%),25 to 60
CCC(C(=O)Nc1ncc(C(O)c2ccccc2Cl)s1)c1ccccc1 (stereo not drawn) [compound 263],++ (“++” means between 25% to 100%),< 10
CCC(C(=O)Nc1nc2ccc(S(C)(=O)=O)cc2s1)c1ccccc1 (stereo not drawn) [compound 264],++ (“++” means between 25% to 100%),25 to 60
CCOc1ccc2nc(NC(=O)C(CC)c3ccccc3)sc2c1 (stereo not drawn) [compound 265],+++ (“+++” means >100%),< 10
CCC(C(=O)Nc1nc2ccc(OC)cc2s1)c1ccccc1 (stereo not drawn) [compound 266],++ (“++” means between 25% to 100%),< 10
CCC(C(=O)Nc1nc2cc(C)c(C)cc2s1)c1ccccc1 (stereo not drawn) [compound 267],++ (“++” means between 25% to 100%),< 10

SMILES,% Activity,EC50 [µM]
CCC(C(=O)Nc1nc2cccc(C)c2s1)c1ccccc1 (stereo not drawn) [compound 268],++ (“++” means between 25% to 100%),< 10
COC(=O)CC(C(=O)Nc1ncc(Cc2ccccc2Cl)s1)c1ccccc1 (stereo not drawn) [compound 269],++ (“++” means between 25% to 100%),< 10
CCC(C(=O)Nc1ncc(Cc2ccccc2Cl)s1)c1ccc(OC)cc1 (stereo not drawn) [compound 270],++ (“++” means between 25% to 100%),< 10
CC(CC(=O)Nc1ncc(Cc2ccccc2Cl)s1)c1ccccc1 (stereo not drawn) [compound 271],++ (“++” means between 25% to 100%),< 10
CN(C)C(Cc1ccccc1)C(=O)Nc1ncc(Cc2ccccc2Cl)s1 (stereo not drawn) [compound 272],+++ (“+++” means >100%),< 10
CCC(C(=O)Nc1ncc(Cc2ccccc2OC)s1)c1ccc(OC)cc1 (stereo not drawn) [compound 273],++ (“++” means between 25% to 100%),< 10
COc1ccccc1Cc1cnc(NC(=O)CC(C)c2ccccc2)s1 (stereo not drawn) [compound 274],++ (“++” means between 25% to 100%),25 to 60
COc1ccccc1Cc1cnc(NC(=O)C(Cc2ccccc2)N(C)C)s1 (stereo not drawn) [compound 275],++ (“++” means between 25% to 100%),25 to 60
CC(CC(=O)Nc1ncc(Cc2ccccc2C#N)s1)c1ccccc1 (stereo not drawn) [compound 276],++ (“++” means between 25% to 100%),25 to 60
CN(C)C(Cc1ccccc1)C(=O)Nc1ncc(Cc2ccccc2C#N)s1 (stereo not drawn) [compound 277],++ (“++” means between 25% to 100%),25 to 60
CCC(C(=O)Nc1ncc(Cc2ccccc2Cl)n1C)c1ccccc1 (stereo not drawn) [compound 278],++ (“++” means between 25% to 100%),< 10
Cc1csc(NC(=O)C(c2ccccc2)c2ccccc2)n1 [compound 279],++ (“++” means between 25% to 100%),25 to 60
CCOC(=O)c1csc(NC(=O)C(c2ccccc2)c2ccccc2)n1 [compound 280],++ (“++” means between 25% to 100%),< 10
CCOC(=O)Cc1csc(NC(=O)C(c2ccccc2)c2ccccc2)n1 [compound 281],++ (“++” means between 25% to 100%),10 to 25
COc1ncccc1Cc1cnc(NC(=O)C(c2ccccc2)c2ccccc2)s1 [compound 282],++ (“++” means between 25% to 100%),< 10
CCC(C(=O)Nc1ncc(Cc2cccnc2OC)s1)c1ccccc1 (stereo not drawn) [compound 283],++ (“++” means between 25% to 100%),< 10
CCC(C(=O)Nc1ncc(Cc2cccc(OC)c2)s1)c1ccccc1 (stereo not drawn) [compound 284],++ (“++” means between 25% to 100%),< 10
CCC(C(=O)Nc1ncc(Cc2cc(F)ccc2OC)s1)c1ccccc1 (stereo not drawn) [compound 285],++ (“++” means between 25% to 100%),< 10
CCC(C(=O)Nc1ncc(Cc2ccc(OC)cc2)s1)c1ccccc1 (stereo not drawn) [compound 286],++ (“++” means between 25% to 100%),< 10
CCCc1nc(NC(=O)C(c2ccccc2)c2ccccc2)sc1C(=O)OCC [compound 287],++ (“++” means between 25% to 100%),< 10
CCCc1nc(NC(=O)C(CC)c2ccccc2)sc1C(=O)OCC (stereo not drawn) [compound 288],++ (“++” means between 25% to 100%),< 10
CCC(C(=O)Nc1nc2c(s1)C(=O)CCC2)c1ccccc1 (stereo not drawn) [compound 289],++ (“++” means between 25% to 100%),25 to 60
